Results published in ChEMBL document CHEMBL4823253, “Structure-Based Design of Selective LONP1 Inhibitors for Probing In Vitro Biology” (J Med Chem, 2021).
Active and inactive are the calls of the source. The calls are words filed in the database; no cut-off is given here.

Tests used:
[1] = molecular target: T1, Lon protease homolog, mitochondrial (Homo sapiens, UniProt P36776); test: Inhibition of LONP1 (unknown origin) using QXL520-YRGITCSGRQK(5-FAM)-NH2 peptide as substrate incubated for 50 mins in presence of ATP by HTRF assay
T1 sequence (P36776 whole entry): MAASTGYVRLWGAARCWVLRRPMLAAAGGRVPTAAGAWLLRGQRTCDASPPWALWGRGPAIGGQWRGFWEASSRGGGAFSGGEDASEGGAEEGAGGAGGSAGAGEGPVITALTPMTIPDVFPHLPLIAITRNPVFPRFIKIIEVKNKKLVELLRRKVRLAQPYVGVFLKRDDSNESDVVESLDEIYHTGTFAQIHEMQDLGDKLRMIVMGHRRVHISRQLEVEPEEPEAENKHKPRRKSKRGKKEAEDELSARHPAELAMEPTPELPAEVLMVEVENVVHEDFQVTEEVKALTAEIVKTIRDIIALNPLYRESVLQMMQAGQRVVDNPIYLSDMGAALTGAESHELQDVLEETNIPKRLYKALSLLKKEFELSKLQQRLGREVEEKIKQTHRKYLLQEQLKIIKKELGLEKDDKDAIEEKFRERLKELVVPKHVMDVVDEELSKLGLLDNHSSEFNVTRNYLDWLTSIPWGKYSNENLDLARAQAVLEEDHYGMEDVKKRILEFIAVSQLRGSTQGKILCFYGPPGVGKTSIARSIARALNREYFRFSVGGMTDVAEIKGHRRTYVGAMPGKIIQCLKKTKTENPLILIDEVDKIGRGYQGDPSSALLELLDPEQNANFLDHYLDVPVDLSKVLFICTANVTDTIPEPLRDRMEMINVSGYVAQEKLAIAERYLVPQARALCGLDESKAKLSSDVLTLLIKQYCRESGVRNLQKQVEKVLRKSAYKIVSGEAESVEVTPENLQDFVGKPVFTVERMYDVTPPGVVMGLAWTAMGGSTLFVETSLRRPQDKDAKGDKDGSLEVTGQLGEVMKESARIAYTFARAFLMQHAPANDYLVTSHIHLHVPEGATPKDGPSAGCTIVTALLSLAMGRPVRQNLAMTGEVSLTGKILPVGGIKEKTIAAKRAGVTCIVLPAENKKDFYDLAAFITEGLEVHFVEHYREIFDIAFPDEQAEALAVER

20S proteasome = test: Inhibition of human erythrocytes 20S proteasome using QXL520-YRGITCSGRQK(5-FAM)-NH2 fluorogenic peptide as substrate preincubated for 10 mins followed by substrate addition and measured after 60 mins by HTRF assay; details: erythrocyte
[2] = molecular target: T2, Cobalamin trafficking protein CblD (Homo sapiens) (UniProt Q9H3L0); test: Binding affinity to MMADHC in human Flp-In-T-REx-293 stably expressing 3X-FLAG-tagged LOPN1 assessed as increase in protein abundance by mass spectrometric analysis
T2 sequence (whole entry): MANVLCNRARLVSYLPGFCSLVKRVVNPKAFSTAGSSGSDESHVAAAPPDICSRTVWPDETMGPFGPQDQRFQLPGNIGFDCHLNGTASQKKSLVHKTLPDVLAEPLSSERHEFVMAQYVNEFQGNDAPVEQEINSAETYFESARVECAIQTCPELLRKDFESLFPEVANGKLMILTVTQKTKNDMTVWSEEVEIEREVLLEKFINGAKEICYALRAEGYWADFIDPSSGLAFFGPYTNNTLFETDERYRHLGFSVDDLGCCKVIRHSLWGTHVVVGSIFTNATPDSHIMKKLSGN

[3] = molecular target: T2, Cobalamin trafficking protein CblD (Homo sapiens); test: Binding affinity to MMADHC in human LONP1 dependent Calu-6 cells assessed as increase in protein abundance by HTRF assay relative to control
[4] = molecular target: T2, Cobalamin trafficking protein CblD (Homo sapiens); test: Binding affinity to MMADHC in human LONP1 dependent NCI-H1944 cells assessed as increase in protein abundance at 10 uM by WES analysis relative to control; type: cell-based
[5] = molecular target: T2, Cobalamin trafficking protein CblD (Homo sapiens); test: Binding affinity to MMADHC in human LONP1 dependent NCI-H1568 cells assessed as increase in protein abundance relative to control; type: cell-based

IC50 [1] [nM] | IC50 (20S proteasome) [nM] | Activity [2] | fold change (FC) [3] | fold change (FC) [4] | fold change (FC) [5] | Compound
93 | > 10000 | – | – | – | – | CCCC[C@@H](NC(=O)c1cnccn1)C(=O)N[C@@H](CC(C)C)B(O)O
59 | > 10000 | Active | 30 | 30 | 30 | CCC[C@@H](NC(=O)c1oc(C)nc1C)C(=O)N[C@@H](CCCc1ccccc1)B(O)O
187 | > 10000 | – | – | – | – | CCC[C@@H](NC(=O)c1cnccn1)C(=O)N[C@@H](CC(C)C)B(O)O
2850 | > 10000 | – | – | – | – | CC(C)C[C@H](NC(=O)[C@H](NC(=O)c1cnccn1)C(C)(C)C)B(O)O
546 | 3970 | – | – | – | – | CC(C)C[C@H](NC(=O)[C@H](NC(=O)c1cnccn1)C(C)C)B(O)O
92 | 541 | – | – | – | – | O=C(N[C@H](Cc1ccccc1)C(=O)N[C@@H](CC1CCCCC1)B(O)O)c1cnccn1
433 | 2680 | – | – | – | – | CC(C)C[C@H](NC(=O)[C@@H](C)NC(=O)c1cnccn1)B(O)O
92 | > 10000 | – | – | – | – | CCC[C@@H](NC(=O)c1cnccn1)C(=O)N[C@@H](CCc1ccccc1)B(O)O
34 | 262 | – | – | – | – | O=C(N[C@H](Cc1ccccc1)C(=O)N[C@@H](CCc1ccccc1)B(O)O)c1cnccn1
408 | > 10000 | – | – | – | – | CC[C@@H](NC(=O)c1cnccn1)C(=O)N[C@@H](CC(C)C)B(O)O
6200 | – | – | – | – | – | CC(C)C[C@H](NC(=O)C(C)(C)NC(=O)c1cnccn1)B(O)O
77 | 1940 | – | – | – | – | O=C(N[C@H](Cc1ccccc1)C(=O)N[C@@H](CCCCCBr)B(O)O)c1cnccn1
137 | 843 | – | – | – | – | CC(C)C[C@H](NC(=O)[C@@H](CC1CCCCC1)NC(=O)c1cnccn1)B(O)O
38 | > 10000 | – | – | – | – | CCCC[C@H](NC(=O)[C@@H](CCC)NC(=O)c1cnccn1)B(O)O
556 | > 10000 | – | – | – | – | CCC[C@@H](NC(=O)c1cnccn1)C(=O)N[C@@H](Cc1ccccc1)B(O)O
109 | 679 | – | – | – | – | O=C(N[C@H](Cc1ccccc1)C(=O)N[C@@H](Cc1ccccc1)B(O)O)c1cnccn1
17 | > 10000 | – | – | – | – | CCC[C@@H](NC(=O)c1cnccn1)C(=O)N[C@@H](CCCc1ccccc1)B(O)O
136 | > 10000 | – | – | – | – | CCC[C@@H](NC(=O)c1cnccn1)C(=O)N[C@@H](CC1CCCCC1)B(O)O
18 | 259 | – | – | – | – | O=C(N[C@H](Cc1ccccc1)C(=O)N[C@@H](CCCc1ccccc1)B(O)O)c1cnccn1
65 | 1040 | – | – | – | – | CC(C)CCC[C@H](NC(=O)[C@@H](Cc1ccccc1)NC(=O)c1cnccn1)B(O)O
